Where no end group is shown, it is not given here.
What was measured:
[1] = Ala scan of an amylin analogue; cited from earlier work
Description: Of the residues impacting on peptide function only R126 contributed to amylin or CGRP function but not that of CT. R126 in the CTR/RAMP complex sits in close proximity to W84 (RAMP1) that may form an interaction with the peptide C-terminus for amylin and CGRP, and thus may contribute to the orientation of the peptide C-terminus to allow this interaction. The net contribution of the RAMP interaction is a reordering of residues in loop 5 that facilitates the peptide turn of amylin and CGRP and interaction of the C-terminus with the W84 of the RAMP, with reorientation of loop 4 residues facilitat ...

[2] = test system: CT(a) receptor ECD alanine mutants; assay: 125I-hCT radioligand binding, CT(a) mutants; parameters: species or system human; settings: Ala mutation of W79, F99, D101, F102, H121, W128 and Y131; ~50 pM, 1 h, 37 °C, whole Cos-7 cells
Description: transfected with CT(a). […] Data are
binding observed for each peptide.
For C, D and E statistical

Substance	binding [1]	125I-hCT binding [2]
T30: amylin analogue with T30 substitution, from Ala scan of ref 34 (KCNTATCATQRLANFLVHSSNNFGAILSSANVGSNTY; ends and bridges not checked; cysteine pairing not given here; UniProt P10997 34-70, looked up, variant T30A)	abolishing binding	–
V32: amylin analogue with V32 substitution, from Ala scan of ref 34 (KCNTATCATQRLANFLVHSSNNFGAILSSTNAGSNTY; ends and bridges not checked; cysteine pairing not given here; UniProt P10997 34-70, looked up, variant V32A)	abolishing binding	–
^125I-hCT: hCT radioiodinated with iodination bead, purified by reverse-phase HPLC	–	significantly reduced

Reference: article PMC4869360, “An allosteric role for receptor activity-modifying proteins in defining GPCR pharmacology” (Cell Discovery, 2016)
